Measured values taken from article PMC10660663.

Assay: Enantiospecific SuFEx S-O bond formation: enantiopure di-sulfonimidoyl fluoride + sodium diphenolate (1:1), [1+1] macrocyclisation, one pot
Settings: the molecule shown is the open-chain precursor, MeCN, 12.5 mM, 60.0 °C, 6.0 h

`Cc1ccc([S@](=O)(F)=NC(=O)c2ccc(Oc3ccc(C(=O)N=[S@](=O)(Oc4ccc(Oc5ccc([O-])cc5)cc4)c4ccc(C)cc4)cc3)cc2)cc1` [(R,R)-3Ab] showed a ring closure, isolated yield (26-membered ring) of 10%.

`Cc1ccc([S@](=O)(F)=NC(=O)c2ccc(C(=O)N=[S@](=O)(Oc3ccc(C(c4ccc([O-])cc4)(C(F)(F)F)C(F)(F)F)cc3)c3ccc(C)cc3)cc2)cc1` [(R,R)-3x] showed a ring closure, isolated yield (21-membered ring) of 35%.

In the case of `Cc1ccc([S@@](=O)(F)=NC(=O)c2ccc(C(=O)N=[S@@](=O)(Oc3ccc(C(C)(C)c4ccc([O-])cc4)cc3)c3ccc(C)cc3)cc2)cc1` [(S,S)-3w], the ring closure, isolated yield (21-membered ring) is reported as 62%.

For `Cc1ccc([S@@](=O)(F)=NC(=O)c2ccc(-c3ccc(C(=O)N=[S@@](=O)(Oc4ccc(C(C)(C)c5cccc(C(C)(C)c6ccc([O-])cc6)c5)cc4)c4ccc(C)cc4)cc3)cc2)cc1` [(S,S)-3y], the ring closure, isolated yield (29-membered ring) was 37%.

In the case of `Cc1ccc([S@](=O)(F)=NC(=O)c2ccc(Oc3ccc(C(=O)N=[S@](=O)(Oc4ccc(Cc5ccc([O-])cc5)cc4)c4ccc(C)cc4)cc3)cc2)cc1` [(R,R)-3Aa], the ring closure, isolated yield (26-membered ring) is reported as 12%.

Compound `Cc1ccc([S@@](=O)(F)=NC(=O)c2ccc(C(=O)N=[S@@](=O)(Oc3ccc(C(C)(C)c4cccc(C(C)(C)c5ccc([O-])cc5)c4)cc3)c3ccc(C)cc3)cc2)cc1` [(S,S)-3c] has a ring closure, isolated yield (25-membered ring) of 42%.

With `Cc1ccc([S@](=O)(F)=NC(=O)c2ccc(C(=O)N=[S@](=O)(Oc3ccc(Cc4ccc([O-])cc4)cc3)c3ccc(C)cc3)cc2)cc1` [(R,R)-3u] the ring closure, isolated yield (21-membered ring) was 42%.

`Cc1ccc([S@@](=O)(F)=NC(=O)c2ccc(Oc3ccc(C(=O)N=[S@@](=O)(Oc4ccc(Cc5ccc([O-])cc5)cc4)c4ccc(C)cc4)cc3)cc2)cc1` [(S,S)-3Aa] showed a ring closure, isolated yield (26-membered ring) of 12%.

In the case of `Cc1ccc([S@](=O)(F)=NC(=O)c2ccc(C(=O)N=[S@](=O)(Oc3ccc(Oc4ccc([O-])cc4)cc3)c3ccc(C)cc3)cc2)cc1` [(R,R)-3v], the ring closure, isolated yield (21-membered ring) is reported as 26%.

`Cc1ccc([S@@](=O)(F)=NC(=O)c2ccc(C(=O)N=[S@@](=O)(Oc3ccc(SSc4ccc([O-])cc4)cc3)c3ccc(C)cc3)cc2)cc1` [(S,S)-3a] gave a ring closure, isolated yield (22-membered ring) of 93%.

Compound `Cc1ccc([S@@](=O)(F)=NC(=O)c2ccc(Oc3ccc(C(=O)N=[S@@](=O)(Oc4ccc(C(c5ccc([O-])cc5)(C(F)(F)F)C(F)(F)F)cc4)c4ccc(C)cc4)cc3)cc2)cc1` [(S,S)-3Ad] has a ring closure, isolated yield (26-membered ring) of 20%.

`Cc1ccc([S@@](=O)(F)=NC(=O)c2ccc(Oc3ccc(C(=O)N=[S@@](=O)(Oc4ccc(C(C)(C)c5cccc(C(C)(C)c6ccc([O-])cc6)c5)cc4)c4ccc(C)cc4)cc3)cc2)cc1` [(S,S)-3o (diphenyl ether)] showed a ring closure, isolated yield (30-membered ring) of 64%.

`Cc1ccc([S@@](=O)(F)=NC(=O)c2ccc(C(=O)N=[S@@](=O)(Oc3ccc(C(c4ccc([O-])cc4)(C(F)(F)F)C(F)(F)F)cc3)c3ccc(C)cc3)cc2)cc1` [(S,S)-3x] showed a ring closure, isolated yield (21-membered ring) of 33%.

With `Cc1ccc([S@@](=O)(F)=NC(=O)c2ccc(Oc3ccc(C(=O)N=[S@@](=O)(Oc4cccc(Oc5cccc(Oc6cccc([O-])c6)c5)c4)c4ccc(C)cc4)cc3)cc2)cc1` [(S,S)-3k] the ring closure, isolated yield (28-membered ring) was 85%.

Work on `Cc1ccc([S@@](=O)(F)=NC(=O)c2ccc(Oc3ccc(C(=O)N=[S@@](=O)(Oc4ccc(C(C)(C)c5ccc([O-])cc5)cc4)c4ccc(C)cc4)cc3)cc2)cc1` [(S,S)-3Ac] yielded a ring closure, isolated yield (26-membered ring) of 16%.

In the case of `Cc1ccc([S@@](=O)(F)=NC(=O)c2cccc(C(=O)N=[S@@](=O)(Oc3ccc(SSc4ccc([O-])cc4)cc3)c3ccc(C)cc3)n2)cc1` [(S,S)-3r], the ring closure, isolated yield (21-membered ring) is reported as 71%.

Work on `Cc1ccc([S@@](=O)(F)=NC(=O)c2ccc(-c3ccc(C(=O)N=[S@@](=O)(Oc4ccc(C(C)(C)c5ccc([O-])cc5)cc4)c4ccc(C)cc4)cc3)cc2)cc1` [[1+1] of 4i (not observed)] yielded a ring closure, isolated yield (25-membered ring) of 0%.

In the case of `Cc1ccc([S@@](=O)(F)=NC(=O)c2ccc(C(=O)N=[S@@](=O)(Oc3ccc(Oc4ccc([O-])cc4)cc3)c3ccc(C)cc3)cc2)cc1` [(S,S)-3v], the ring closure, isolated yield (21-membered ring) is reported as 34%.
